Data taken from patent US9247738B2, “Method and composition for inhibition of microbial growth in aqueous food transport and process streams” (Ecolab USA Inc., priority 2000, dated 2016).

Columns and labels:
Format in all cases: cell-based
Candida parapsilosis = assay: Rate of fungus kill in use-solution; conditions: 80 ppm total peracid, 25° C.
Protocol: (§1) Routine transfer to Sabouraud Dextrose agar slants maintained cultures of Candida parapsilosis (from blueberry processing water), Rhodotorula species (from celery processing water), Cryptococcus species (from potato processing water) and Zygosaccharomyces bailii (ATCC 60483). Growth was harvested by adding 5 mL of phosphate buffered water to the slant, mixing and then transferring the suspension into 90 mL of phosphate buffered water. The resulting suspension was used for testing.
(§2) Two antimicrobial agents were used for testing. The first agent contained peroxyacetic acid. The second contained a peroxyacetic acid/peroxyoctanoic acid mixture. Both agents were diluted in sterile deionized water to achieve a total peracid concentration of 80 ppm. The composition of the use-solutions were as follows:
(§3) The rate at which peroxyacetic acid and a peroxyacetic acid/peroxyoctanoic acid mixture killed fungi was measured by inoculating use-solutions of each antimicrobial agent with fungi and then quantifying survivors after various exposure times.
(§4) Testing was performed in duplicate. 99 mL of each antimicrobial use-solution was transferred to a 250 mL Erlenmeyer flask and allowed to equilibrate to 25° C. The liquid in the flask was swirled vigorously in a rapid circular motion and 1 mL of a fungus suspension was added. After 30 seconds, 2, 5 or 10 minutes 1 mL quantities of the use-solution were transferred to 9 mL of an inactivating solution including 0.1% sodium thiosulfate. 1 mL quantities of the inactivating solution were pour-plated using Sabouraud Dextrose agar. Serial 100-fold dilutions of the inactivating solution were also plated. Agar plates were incubated for 72 hours at 26° C. before counting survivors. The log reduction of fungi due to the antimicrobial agent was determined by comparing reduction to a water control.

Cryptococcus species = assay: Rate of fungus kill in use-solution; conditions: Cryptococcus sp., 80 ppm total peracid, 25° C.
Protocol: as §1, §2, §3, §4

Rhodotorula species = assay: Rate of fungus kill in use-solution; conditions: Rhodotorula sp., 80 ppm total peracid, 25° C.
Protocol: as §1, §2, §3, §4

[1] = test system: Zygosaccharomyces bailii (ATCC 60483); assay: Rate of fungus kill in use-solution; conditions: Z. bailii, 80 ppm total peracid, 25° C.
Protocol: as §1, §2, §3, §4

Aspergillus species = assay: Rate of fungus kill in use-solution (mold conidia); conditions: Aspergillus sp., 80 ppm total peracid, 25° C.
Protocol: (§5) Routine transfer to Sabouraud Dextrose agar slants maintained cultures of Aspergillus species (from onion processing water), Penicillium species (from celery processing water) and Cladosporium species (from potato processing water). Conidia suspensions of each mold were prepared by subculturing each mold to Sabouraud Dextrose agar plates and incubating until thick aerial mycelia with conidia were evident. Conidia were harvested by adding approximately 10 mL of phosphate buffered water to the plate, scraping the mycelia and collecting the suspension in a flask. The suspension was filtered through sterile gauze to remove large mycelia fragments from the conidia. The resulting suspension was used for testing.
as §2, §3, §4

Cladosporium species = assay: Rate of fungus kill in use-solution (mold conidia); conditions: Cladosporium sp., 80 ppm total peracid, 25° C.
Protocol: as §5, §2, §3, §4

Penicillium species = assay: Rate of fungus kill in use-solution (mold conidia); conditions: Penicillium sp., 80 ppm total peracid, 25° C.
Protocol: as §5, §2, §3, §4

total aerobic bacteria = assay: Antimicrobial efficacy in fresh-cut vegetable processing water, Aerobic Plate Count
Protocol: (§6) Vegetable processing water testing was done using the same antimicrobial agents as in laboratory aqueous system testing. The varying concentrations of each agent are listed in the results section. Municipal tap water was the diluent.
(§7) The reduction of microorganisms in vegetable processing water treated with peroxyacetic acid or a peroxyacetic acid/peroxyoctanoic acid mixture was determined. Testing was done in two separate recycled water systems. In both systems, cut vegetables fell into a water stream that carried them to a de-watering area where they were collected for further processing. The water that the vegetables traveled in was routed to a balance tank that fed back into the original water stream thus completing the process loop. One system was used to wash cut, raw celery or cabbage. The other system was used to transport cut, raw potatoes to a blancher.
(§8) During processing of each vegetable, 10 water samples were collected in sterile plastic bags containing an inactivating agent (0.01% sodium thiosulfate). 1 mL quantities were plated on Petrifilm® (3M, Inc.) Aerobic Plate Count, Coliform Count and Yeast & Mold Count media. Validation of these media using this procedure was performed prior to initiating testing (data not presented). Serial 100-fold dilutions were also plated. Petrifilms were incubated at 35° C. for 24 hours (Coliform Count), 35° C. for 48 hours (Aerobic Plate Count), or at room temperature for 72 hours (Yeast & Mold Count). The number of microorganisms was counted following incubation.
(§9) The same analysis was used to evaluate the significance of reduction on vegetable surfaces.

coliform bacteria [2] = assay: Antimicrobial efficacy in fresh-cut vegetable processing water, Coliform Count
Protocol: as §6, §7, §8, §9

yeast and mold = assay: Antimicrobial efficacy in fresh-cut vegetable processing water, Yeast & Mold Count
Protocol: as §6, §7, §8, §9

Aerobic Bacteria = assay: Antimicrobial efficacy on fresh-cut vegetables, aerobic bacteria; conditions: 30 second exposure to process water
Protocol: as §6, §7
(§10) Microorganism reduction on vegetable surfaces in the transport and process water was determined while water analyses were being conducted. Ten samples of each cut vegetable were collected just prior to falling into the process water stream and just after de-watering.
(§11) Eleven grams of each sample were transferred to bag containing 99 mL of sterile phosphate buffered water. Contents of the bag were mixed in a Stomacher brand mixer for approximately 1 minute. Afterwards, 1 mL of the mixture was plated on Petrifilm brand Aerobic Plate Count, Coliform Count and Yeast & Mold Count media. 1 mL quantities of 100-fold serial dilutions were also plated. Petrifilms were incubated and enumerated as described above in this Example.
as §9

coliform bacteria [3] = assay: Antimicrobial efficacy on fresh-cut vegetables, coliform bacteria; conditions: 30 second exposure to process water
Protocol: as §6, §7, §10, §11, §9

Yeast & Mold = assay: Antimicrobial efficacy on fresh-cut vegetables, yeast & mold; conditions: 30 second exposure to process water
Protocol: as §6, §7, §10
Eleven grams of each sample were transferred to bag containing 99 mL of sterile phosphate buffered water. Contents of the bag were mixed in a Stomacher brand mixer for approximately 1 minute. […] 1 mL quantities of 100-fold serial dilutions were also plated. […]

Escherichia coli O157:H7 = assay: Kill of pathogenic bacteria on tomato surfaces and in the wash solution
Protocol: (§12) The following procedure was employed for determining whether a composition killed pathogenic bacteria (e.g. Escherichia coli O157:H7, Listeria monocytogenes, or Salmonella javiana) on the surface of a fruit or vegetable. Bacteria were applied to tomato surfaces and allowed a 1-2 hour attachment time. Contaminated tomatoes were submersed in a peroxyacetic/peroxyoctanoic acid mixture according to the present invention (at a level yielding 40 ppm peroxyacetic acid) or water for 1 minute without agitation. After 1 minute, tomatoes were transferred to a solution that neutralized the peroxy acids and peroxides and massaged for 3 minutes to remove attached bacteria. The number of attached bacteria that survived treatment was determined using standard agar plating technique. The number of bacteria that “fell off” the tomato into the water or peroxyacetic/peroxyoctanoic acid mixture according to the present invention, and survived, was also determined by neutralization and agar plating technique. A similar experiment was conducted employing a peroxyacetic acid antimicrobial composition.

Salmonella javiana = assay: as above
Protocol: as §12

Listeria monocytogenes = assay: as above
Protocol: The following procedure was employed for determining whether a composition killed pathogenic bacteria (e.g. Escherichia coli O157:H7, Listeria monocytogenes, or Salmonella javiana) on the surface of a fruit or vegetable. Bacteria were applied to tomato surfaces and allowed a 1-2 hour attachment time. […] After 1 minute, tomatoes were transferred to a solution that neutralized the peroxy acids and peroxides and massaged for 3 minutes to remove attached bacteria. The number of attached bacteria that survived treatment was determined using standard agar plating technique. The number of bacteria that “fell off” the tomato into the water or peroxyacetic/peroxyoctanoic acid mixture according to the present invention, and survived, was also determined by neutralization and agar plating technique. A similar experiment was conducted employing a peroxyacetic acid antimicrobial composition.

[4] = Cabbage process water, average peracid from POAA agent 26 ppm, from POAA/POOA agent 29 ppm
[5] = Celery process water, average peracid from POAA agent 38 ppm, from POAA/POOA agent 39 ppm
[6] = Potatoes process water, average peracid from POAA agent 54 ppm, from POAA/POOA agent 32 ppm
[7] = Cabbage, peracid POAA agent 26 ppm, POAA/POOA agent 29 ppm
[8] = Celery, peracid POAA agent 38 ppm, POAA/POOA agent 39 ppm
[9] = Potatoes, peracid POAA agent 54 ppm, POAA/POOA agent 32 ppm

## CC(=O)OO [POAA, peroxyacetic acid]
Candida parapsilosis; 2 Minutes
  Average log reduction of yeast: 1.49 log
Candida parapsilosis; 5 Minutes
  Average log reduction of yeast: 3.42 log
Candida parapsilosis; 30 Seconds
  Average log reduction of yeast: 0.34 log
Cryptococcus species; 2 Minutes
  Average log reduction of yeast: >7.08 log
Cryptococcus species; 5 Minutes
  Average log reduction of yeast: >7.08 log
Cryptococcus species; 30 Seconds
  Average log reduction of yeast: >7.08 log
Rhodotorula species; 2 Minutes
  Average log reduction of yeast: >3.88 log
Rhodotorula species; 5 Minutes
  Average log reduction of yeast: >3.88 log
Rhodotorula species; 30 Seconds
  Average log reduction of yeast: >3.88 log
[1]; 2 Minutes
  Average log reduction of yeast: 0.18 log
[1]; 5 Minutes
  Average log reduction of yeast: 0.94 log
[1]; 30 Seconds
  Average log reduction of yeast: 0.16 log
Aspergillus species; 2 Minutes
  Average log reduction of mold: 0 log
Aspergillus species; 5 Minutes
  Average log reduction of mold: 0 log
Aspergillus species; 10 Minutes
  Average log reduction of mold: 0 log
Cladosporium species; 2 Minutes
  Average log reduction of mold: 1.86 log
Cladosporium species; 5 Minutes
  Average log reduction of mold: 4.18 log
Cladosporium species; 10 Minutes
  Average log reduction of mold: >4.18 log
Penicillium species; 2 Minutes
  Average log reduction of mold: 0 log
Penicillium species; 5 Minutes
  Average log reduction of mold: 0.45 log
Penicillium species; 10 Minutes
  Average log reduction of mold: 1.52 log
Total aerobic bacteria; [4]
  Average number of microorganisms in process water, Aerobic Plate Count: 1.92 log CFU/mL
Total aerobic bacteria; [5]
  Average number of microorganisms in process water, Aerobic Plate Count: 2.02 log CFU/mL
Total aerobic bacteria; [6]
  Average number of microorganisms in process water, Aerobic Plate Count: 0.92 log CFU/mL
Coliform bacteria [2]; [4]
  Average number of microorganisms in process water, Coliform Count: 0 log CFU/mL
Coliform bacteria [2]; [5]
  Average number of microorganisms in process water, Coliform Count: 0 log CFU/mL
Coliform bacteria [2]; [6]
  Average number of microorganisms in process water, Coliform Count: 0 log CFU/mL
Yeast and mold; [4]
  Average number of microorganisms in process water, Yeast & Mold Count: 2.02 log CFU/mL
Yeast and mold; [5]
  Average number of microorganisms in process water, Yeast & Mold Count: 1.86 log CFU/mL
Yeast and mold; [6]
  Average number of microorganisms in process water, Yeast & Mold Count: 5.48 log CFU/mL
Aerobic Bacteria; [7]
  Average log reduction on fresh-cut vegetables, Aerobic Bacteria Reduction: 0.84 log
Aerobic Bacteria; [8]
  Average log reduction on fresh-cut vegetables, Aerobic Bacteria Reduction: 1.07 log
Aerobic Bacteria; [9]
  Average log reduction on fresh-cut vegetables, Aerobic Bacteria Reduction: 1.54 log
Coliform bacteria [3]; [7]
  Average log reduction on fresh-cut vegetables, Coliform Bacteria Reduction: >0.88 log
Coliform bacteria [3]; [8]
  Average log reduction on fresh-cut vegetables, Coliform Bacteria Reduction: 0.77 log
Coliform bacteria [3]; [9]
  Average log reduction on fresh-cut vegetables, Coliform Bacteria Reduction: >1.58 log
Yeast & Mold; [7]
  Average log reduction on fresh-cut vegetables, Yeast & Mold Reduction: 0.77 log
Yeast & Mold; [8]
  Average log reduction on fresh-cut vegetables, Yeast & Mold Reduction: 0.68 log
Escherichia coli O157:H7; 20 ppm POAA
  reduction in the E. coli O157:H7 in tomato wash water: 57%
Escherichia coli O157:H7; 40 ppm POAA
  reduction in the E. coli O157:H7 in tomato wash water: 88%
Escherichia coli O157:H7; 60 ppm POAA
  reduction in the E. coli O157:H7 in tomato wash water: 94%
Salmonella javiana; 20 ppm POAA
  reduction in amounts of S. javiana: no reduction
Salmonella javiana; 40 ppm POAA
  reduction in amounts of S. javiana: no reduction
Salmonella javiana; 60 ppm POAA
  reduction in amounts of S. javiana: 91%
Listeria monocytogenes; 20 ppm POAA
  reduction of L. monocytogenes on tomatoes: 84%
Listeria monocytogenes; 40 ppm POAA
  reduction of L. monocytogenes on tomatoes: 95%
Listeria monocytogenes; 60 ppm POAA
  reduction of L. monocytogenes on tomatoes: 98%
